According to patent publication US6716819B2, “Use of xylitol to reduce ionic strength and activate endogenous antimicrobials for prevention and treatment of infections” (University of Iowa Research Foundation, priority 2000, dated 2004):

Assays:
CF epithelia = experiment: ASL Cl- concentration and volume (isotope method); type: cell-based, human
Experimental: FIGS. 3(A-B). The effect of apical xylitol on non-CF and CF ASL Cl^− concentration and volume. Five μl of isosmotic xylitol or saline solution were applied to the apical surface. Twenty-four hours later, ASL Cl^− concentration (A) and volume (B) were determined. Asterisk indicates a difference between the saline and the xylitol solutions, p<0.05. N=15 to 18 from 3 CF and 3 non-CF specimens.
Airway epithelial cells were isolated from tracheal and bronchial tissue. […] All epithelia were evaluated with scanning electron microscopy for the development of a ciliated apical surface.
The ASL Cl^− concentration was measured as previously described (Zabner, J., J. J. Smith, P. H. Karp, J. H. Widdicombe, and M. J. Welsh. 1998. Loss of CFTR chloride channels alters salt absorption by cystic fibrosis airway epithelia in vitro. Mol. Cell. 2:397-403). […] The ratio of ^36Cl to ^3H2O was determined by liquid scintillation. […] From these measurements, it was determined the ^3H2O activity per μl of water and the cpm of ^36Cl per mole of Cl^− in the basolateral medium. ASL volume was calculated from the ASL ^3H2O collected divided by the ratio of ^3H2O activity per μl of basolateral medium. Chloride content was calculated from the ASL ^36Cl collected divided by the ratio of ^36Cl per mole of Cl^− in the basolateral medium ASL Cl^− concentration was calculated from the Cl^− content divided by the volume of ASL. […]

[1] = test system: coagulase-negative Staphylococcus; experiment: Growth in carbon-starved M9 media (O.D.); type: cell-based; details: M9 media supplemented at 100 mM
Experimental: (§1) FIGS. 5(A-G). […] A, B and C. Growth of P. aeruginosa (A), S. aureus, (B), and coagulase-negative Staphylococcus (C) were measured as O. D. M9 media alone is indicated by open triangle. Xylitol (closed circle), or succinate, mannitol, or sucrose (open circles), were added to M9 media at 100 mM as indicated. D. Nasal swabs were collected and cultured for 3 days in Lauria-Bertani media (open circles), in minimal M9 media (open squares), or in M9 media supplemented with 100 mM xylitol (closed circles). E, F and G. P. aeruginosa (E), S. aureus (F), and coagulase-negative Staphylococcus (G) were cultured in Lauria-Bertani media alone (open triangles), Lauria-Bertani media with 100 mM xylitol (closed circles), and Lauria-Bertani media containing tobramycin or levofloxacin (open circles).
(§2) To test the effect of xylitol on growth of different airway pathogens in a carbon-starved media, P. aeruginosa, S. aureus, and coagulase-negative Staphylococcus were grown overnight in Lauria-Bertani medium. The bacteria were then centrifuged and resuspended in M9 media containing either 100 mM succinate, mannitol, or sucrose, respectively, and grown overnight at 37° C. The bacteria were centrifuged and resuspended in M9 media alone. M9 media containing 100 mM xylitol, or 100 mM of the indicated metabolizable sugar, as positive control. The optical density (O.D.) was measured after 0, 1, 2, and 4 hours at 600 nm on a Beckman DU640 Spectrophotometer (Schaumburg, Ill.). To test the antibiotic effect of xylitol, P. aeruginosa, S. aureus, and coagulase-negative Staphylococcus were grown overnight in Lauria-Bertani medium. The bacteria were then centrifuged and resuspended in Lauria-Bertani media with and without 100 mM xylitol. As a positive control, antibiotics with specific activity to each of the bacteria were added to the media (40 μg/ml tobramycin or 40 μg/ml levofloxacin).

P. aeruginosa = experiment: Growth in carbon-starved M9 media (O.D.); type: cell-based; details: M9 media supplemented at 100 mM
Experimental: as §1, §2

OC[C@@H](O)[C@H](O)[C@@H](O)CO [xylitol]
estimated ASL volume (CF epithelia; 24 hours after 5 μl apical): increased | ASL Cl- concentration (CF epithelia; 24 hours after 5 μl isosmotic xylitol solution apical): fell to values observed in non-CF epithelia | growth of coagulase-negative Staphylococcus [1]: failed to support growth | growth of P. aeruginosa (P. aeruginosa): no growth
